Reference: patent US20240018161A1, “MODULATORS OF CYSTIC FIBROSIS TRANSMEMBRANE CONDUCTANCE REGULATOR” (VERTEX PHARMACEUTICALS INCORPORATED, priority 2020, published 2024)
Read-outs that look alike come from different tables or passages of the source. One block for each molecule: values may come before it.

Assays:
[1] = 13-membered ring, DMF
[2] = 13-membered ring, DMF; remark: listed apart in the source
[3] = biological target: T1, CFTR-mediated chloride transport in human intestinal epithelial enteroid cells (Homo sapiens, UniProt P13569); assay: Membrane potential dye, Enteroid Assay B; assay type: cell-based; conditions: Enteroid Assay B; for EC50: read-out: Ent. B EC50
T1 sequence (P13569 with tags, fused parts or gaps DEL508-508): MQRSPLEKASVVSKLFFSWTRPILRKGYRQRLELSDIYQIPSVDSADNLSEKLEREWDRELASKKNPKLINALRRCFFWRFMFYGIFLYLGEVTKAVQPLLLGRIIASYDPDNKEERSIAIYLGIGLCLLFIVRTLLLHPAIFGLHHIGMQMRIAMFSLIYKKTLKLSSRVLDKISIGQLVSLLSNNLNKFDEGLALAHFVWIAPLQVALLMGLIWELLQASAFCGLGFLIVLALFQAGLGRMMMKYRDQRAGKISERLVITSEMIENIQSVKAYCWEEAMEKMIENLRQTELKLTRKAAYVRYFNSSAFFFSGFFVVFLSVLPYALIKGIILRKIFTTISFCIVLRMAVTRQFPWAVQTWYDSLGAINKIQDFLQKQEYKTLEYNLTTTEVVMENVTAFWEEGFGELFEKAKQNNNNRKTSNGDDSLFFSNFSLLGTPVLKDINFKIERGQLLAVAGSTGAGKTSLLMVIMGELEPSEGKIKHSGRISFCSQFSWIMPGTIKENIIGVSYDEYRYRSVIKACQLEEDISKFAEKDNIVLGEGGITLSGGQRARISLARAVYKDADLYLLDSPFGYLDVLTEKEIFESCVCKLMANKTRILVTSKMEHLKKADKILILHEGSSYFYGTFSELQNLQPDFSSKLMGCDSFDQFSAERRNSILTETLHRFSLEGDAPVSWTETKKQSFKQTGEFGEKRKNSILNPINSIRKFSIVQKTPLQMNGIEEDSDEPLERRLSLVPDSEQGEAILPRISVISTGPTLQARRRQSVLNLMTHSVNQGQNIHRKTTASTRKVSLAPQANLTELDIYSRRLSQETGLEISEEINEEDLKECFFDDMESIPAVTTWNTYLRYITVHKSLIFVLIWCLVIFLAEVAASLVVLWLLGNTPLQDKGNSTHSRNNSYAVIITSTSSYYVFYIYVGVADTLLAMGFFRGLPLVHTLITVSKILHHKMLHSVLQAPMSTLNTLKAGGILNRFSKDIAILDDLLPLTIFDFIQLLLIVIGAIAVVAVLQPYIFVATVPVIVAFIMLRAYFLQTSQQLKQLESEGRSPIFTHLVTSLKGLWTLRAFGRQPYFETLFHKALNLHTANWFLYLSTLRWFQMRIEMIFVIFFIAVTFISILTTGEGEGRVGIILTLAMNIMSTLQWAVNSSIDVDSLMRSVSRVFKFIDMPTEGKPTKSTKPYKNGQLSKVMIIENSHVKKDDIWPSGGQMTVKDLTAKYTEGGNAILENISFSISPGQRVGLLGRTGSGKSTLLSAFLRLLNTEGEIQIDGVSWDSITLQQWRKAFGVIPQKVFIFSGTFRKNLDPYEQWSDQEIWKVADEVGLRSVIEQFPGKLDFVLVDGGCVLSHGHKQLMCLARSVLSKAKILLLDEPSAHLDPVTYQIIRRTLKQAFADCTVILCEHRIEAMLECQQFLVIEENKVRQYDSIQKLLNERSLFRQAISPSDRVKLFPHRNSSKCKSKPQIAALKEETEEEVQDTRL
How it was run: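 Human intestinal enteroid cells were loaded for 25 min at room temperature with methyl oxonol membrane-potential dye plus […] (CaCCinh-A01, Chicago Sky Blue). They were then washed into chloride-free gluconate buffer. Chloride transport was triggered by stimulation solution and fluorescence read for 15 min.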

[4] = biological target: T2, CFTR-mediated short-circuit current in F508del/MF-HBE cells (Homo sapiens, UniProt P13569, DEL508-508); assay: HBE2 assay: Ussing chamber assay of CFTR-mediated short-circuit currents; assay type: cell-based
T2 construct: human bronchial epithelial (HBE) cells derived from CF subjects; endogenous in cells; host or cells: primary human bronchial epithelial cells from CF subjects (F508del/MF-HBE)
T2 sequence (P13569 with tags, fused parts or gaps DEL508-508): as above
Method: 1. Ussing Chamber Assay of CFTR-Mediated Short-Circuit Currents
Ussing chamber experiments were performed using human bronchial epithelial (HBE) cells derived from CF subjects heterozygous for F508del and a minimal function CFTR mutation (F508del/MF-HBE) and cultured as previously described (Neuberger T, Burton B, Clark H, Van Goor F Methods Mol Biol 2011:741:39-54). After four days the apical media was removed, and the cells were grown at an air liquid interface for >14 days prior to use.
To isolate the CFTR-mediated short-circuit (ISC) current, F508del/MF-HBE grown on Costar® Snapwell™ cell culture inserts were mounted in an Ussing chamber and the transepithelial ISC was measured under voltage-clamp recording conditions (Vhold=0 mV) at 37° C. The basolateral solution contained (in mM) 145 NaCl, 0.83 K2HPO4, 3.3 KH2PO4, 1.2 MgCl2, 1.2 CaCl2, 10 Glucose, 10 HEPES (pH adjusted to 7.4 with NaOH) and the apical solution contained (in mM) 145 NaGluconate, 1.2 MgCl2, 1.2 CaCl2, 10 glucose, 10 HEPES (pH adjusted to 7.4 with NaOH) and 30 μM amiloride to block the epithelial sodium channel. Forskolin (20 μM) was added to the apical surface to activate CFTR, followed by apical addition of a CFTR inhibitor cocktail consisting of BPO, GlyH-101, and CFTR inhibitor 172 (each at 20 μM final assay concentration) to specifically isolate CFTR currents. The CFTR-mediated ISC (μA/cm^2) for each condition was determined from the peak forskolin response to the steady-state current following inhibition.
2. Identification of Corrector Compounds
The activity of the CFTR corrector compounds on the CFTR-mediated ISC was determined in Ussing chamber studies as described above. The F508del/MF-HBE cell cultures were either incubated with the corrector compounds at a range of concentrations in combination with 44 nM (6R,12R)-17-amino-12-methyl-6,15-bis(trifluoromethyl)-13,19-dioxa-3,4,18-triazatricyclo[12.3.1.12,5]nonadeca-1(18),2,4,14,16-pentaen-6-ol or were incubated with the corrector compounds at a single fixed concentration of 1 and 3 μM in combination with 44 nM (6R,12R)-17-amino-12-methyl-6,15-bis(trifluoromethyl)-13,19-dioxa-3,4,18-triazatricyclo[12.3.1.12,5]nonadeca-1(18),2,4,14,16-pentaen-6-ol for 18-24 hours at 37° C. and in the presence of […]. The concentration of corrector compounds with 44 nM (6R,12R)-17-amino-12-methyl-6,15-bis(trifluoromethyl)-13,19-dioxa-3,4,18-triazatricyclo[12.3.1.12,5]nonadeca-1(18),2,4,14,16-pentaen-6-ol during the 18-24 hours incubations was kept constant throughout the Ussing chamber measurement of the CFTR-mediated ISC to ensure compounds were present throughout the entire experiment.

[5] = biological target: T1, CFTR-mediated chloride transport in human intestinal epithelial enteroid cells; assay: Membrane potential dye, Enteroid Assay A; assay type: cell-based; conditions: Enteroid Assay A; for EC50: read-out: Ent. A EC50
How it was run: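 Membrane potential dye (20 μM methyl oxonol, with 30 μM CaCCinh-A01 and 30 μM Chicago Sky Blue) loaded 25 min at room temperature into ROCK-inhibitor-seeded human enteroid cells. Chloride-free stimulation buffer triggered transport, followed by 15 min fluorescence. % Activity relative to 3 μM/3 μM/300 nM triple-combination control.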

SMILES: Cc1cccc(C)c1-c1cc2nc(n1)NS(=O)(=O)c1cccc(c1)C(=O)N1C(c3ncc(OC(C)C)cn3)CCCC(CC(C)C)C1CO2 (stereo not shown)
- ring closure, isolated yield ([1]; from Cc1cccc(C)c1-c1cc(OCC2NC(c3ncc(OC(C)C)cn3)CCCC2CC(C)C)nc(NS(=O)(=O)c2cccc(C(=O)O)c2)n1, amide bond, CDMT/NMM, 14.3 mM, 48.0 h, 2 steps): 41%
- ring closure, yield after HPLC ([2]; from Cc1cccc(C)c1-c1cc(OCC2NC(c3ncc(OC(C)C)cn3)CCCC2CC(C)C)nc(NS(=O)(=O)c2cccc(C(=O)O)c2)n1, amide bond, CDMT/NMM, 13.7 mM, 48.0 h, 2 steps): 12%

SMILES: Cc1cccc(C)c1-c1cc2nc(n1)NS(=O)(=O)c1cccc(c1)C(=O)N1CCN(Cc3ccccc3)CC(O2)C1CC(C)C (stereo not shown)
- ring closure, isolated yield ([1]; from Cc1cccc(C)c1-c1cc(Cl)nc(NS(=O)(=O)c2cccc(C(=O)N3CCN(Cc4ccccc4)CC(O)C3CC(C)C)c2)n1, snar bond, NaH, 15.6 mM, 25.0 °C, 23.0 h): 21%
- ring closure, yield after HPLC ([2]; from Cc1cccc(C)c1-c1cc(Cl)nc(NS(=O)(=O)c2cccc(C(=O)N3CCN(Cc4ccccc4)CC(O)C3CC(C)C)c2)n1, snar bond, NaH, 15.2 mM, 25.0 °C, 24.0 h): 11%

SMILES: Cc1cccc(C)c1-c1cc2nc(n1)NS(=O)(=O)c1cccc(c1)C(=O)N1CCc3cc(C(C)(C)C)ccc3C1CO2 (single isomer, unassigned) [Compound 235, 8-tert-butyl-17-(2,6-dimethylphenyl)-14-oxa-21λ^6-thia-3,18,20,27-tetraazapentacyclo[20.3.1.115,19.03,12.06,11]heptacosa-1(26),6(11),7,9,15(27),16,18,22,24-nonaene-2,21,21-trione]
- ring closure, isolated yield ([1]; from Cc1cccc(C)c1-c1cc(OCC2NCCc3cc(C(C)(C)C)ccc32)nc(NS(=O)(=O)c2cccc(C(=O)O)c2)n1, amide bond, HATU/Et3N, 16.5 mM, 25.0 °C, 16.0 h): 34%
- Ent. B Max Activity (%) [3]: ++ (++ is 30-60%)
- EC50 [3]: < 1000 nM

SMILES: Cc1cccc(C)c1-c1cc2nc(n1)NS(=O)(=O)c1cccc(c1)C(=O)N1C[C@@H](CN(C(=O)OC(C)(C)C)C[C@@H]1CC(C)(C)C)O2 [Compound 134, tert-Butyl (16S,20S)-12-(2,6-dimethylphenyl)-20-(2,2-dimethylpropyl)-2,8,8-trioxo-15-oxa-8λ^6-thia-1,9,11,18,22-pentaazatetracyclo[14.4.1.13,7.110,14]tricosa-3(23),4,6,10(22),11,13-hexaene-18-carboxylate]
- ring closure, isolated yield ([1]; from Cc1cccc(C)c1-c1cc(O[C@H]2CN[C@@H](CC(C)(C)C)CN(C(=O)OC(C)(C)C)C2)nc(NS(=O)(=O)c2cccc(C(=O)O)c2)n1, amide bond, HATU/DIEA, 29.2 mM, 25.0 °C, 0.33 h): 57%
- Ent. A Max Activity (%) [5]: ++ (++ is 30-60%)
- EC50 [5]: < 1000 nM

SMILES: Cc1cccc(C)c1-c1cc2nc(n1)NS(=O)(=O)c1cccc(c1)C(=O)N1CC3CN(Cc4ccccc4)CC3(C1)O2 (stereo not shown) [Compound 210, 20-Benzyl-5-(2,6-dimethylphenyl)-2-oxa-9λ^6-thia-6,8,16,20,24-pentaazapentacyclo[14.5.1.13,7.110,14.01,18]tetracosa-3(24),4,6,10,12,14(23)-hexaene-9,9,15-trione]
- ring closure, isolated yield ([1]; from Cc1cccc(C)c1-c1cc(Cl)nc(NS(=O)(=O)c2cccc(C(=O)N3CC4CN(Cc5ccccc5)CC4(O)C3)c2)n1, snar bond, NaH, 33.1 mM, 25.0 °C, 24.0 h): 26%
- Ent. A Max Activity (%) [5]: +++ (+++ is >600%)
- EC50 [5]: < 1000 nM

SMILES: Cc1cccc(C)c1-c1cc2nc(n1)NS(=O)(=O)c1cccc(c1)C(=O)N1C[C@@H](CCC1CC(C)C)O2 (stereo partly drawn) [Compound 234, (3R)-18-(2,6-Dimethylphenyl)-6-(2-methylpropyl)-2-oxa-14λ^6-thia-7,15,17,20-tetraazatetracyclo[14.3.1.13,7.19,13]docosa-1(20),9(21),10,12,16,18-hexaene-8,14,14-trione]
- ring closure, isolated yield ([1]; from Cc1cccc(C)c1-c1cc(Cl)nc(NS(=O)(=O)c2cccc(C(=O)N3C[C@H](O)CCC3CC(C)C)c2)n1, snar bond, NaH, 11.6 mM, 25.0 °C, 16.0 h): 38%
- Ent. B Max Activity (%) [3]: +++ (+++ is >600%)
- EC50 [3]: < 1000 nM

Further lines, results first:

- HBE2 Activity at 3 μM (%) [4]: + (+ is <30+)
SMILES: Cc1cccc(C)c1-c1cc2nc(n1)NS(=O)(=O)c1cccc(c1)C(=O)N1[C@@H](c3ncc(OC(C)C)cn3)CCC(C)(C)[C@H]1CO2 (single isomer, unassigned) [Compound 386, 13-(2,6-dimethylphenyl)-4-(5-isopropoxypyrimidin-2-yl)-7,7-dimethyl-17,17-dioxo-10-oxa-17λ^6-thia-3,14,16,23-tetrazatetracyclo[16.3.1.111,15.03,8]tricosa-1(21),11,13,15(23),18(22),19-hexaen-2-one]

- HBE2 Activity at 3 μM (%) [4]: +++ (+++ is >60%)
SMILES: Cc1cccc(C)c1-c1cc2nc(n1)NS(=O)(=O)c1cccc(c1)C(=O)N1[C@@H](c3ncc(OC(C)C)cn3)CCC(C)(C)[C@H]1CO2 (single isomer, unassigned) [Compound 387, 13-(2,6-Dimethylphenyl)-4-(5-isopropoxypyrimidin-2-yl)-7,7-dimethyl-17,17-dioxo-10-oxa-17λ^6-thia-3,14,16,23-tetrazatetracyclo[16.3.1.111,15.03,8]tricosa-1(21),11,13,15(23),18(22),19-hexaen-2-one]

- HBE2 Activity at 3 μM (%) [4]: +++ (+++ is >60%)
SMILES: Cc1cccc(C)c1-c1cc2nc(n1)NS(=O)(=O)c1cccc(c1)C(=O)N1[C@@H](c3ncc(OC(C)C)cn3)CCC[C@@H](CC(C)C)[C@H]1CO2 (single isomer, unassigned) [Compound 394, 14-(2,6-Dimethylphenyl)-8-isobutyl-4-(5-isopropoxypyrimidin-2-yl)-18,18-dioxo-11-oxa-18λ^6-thia-3,15,17,24-tetrazatetracyclo[17.3.1.112,16.03,9]tetracosa-1(22),12,14,16(24),19(23),20-hexaen-2-one]

- HBE2 Activity at 3 μM (%) [4]: ++ (++ is 30-60%)
SMILES: Cc1cccc(C)c1-c1cc2nc(n1)NS(=O)(=O)c1cccc(c1)C(=O)N1[C@@H](c3ncc(OC(C)C)cn3)CCC[C@@H](CC(C)C)[C@H]1CO2 (single isomer, unassigned) [Compound 395, 14-(2,6-dimethylphenyl)-8-isobutyl-4-(5-isopropoxypyrimidin-2-yl)-18,18-dioxo-11-oxa-18λ^6-thia-3,15,17,24-tetrazatetracyclo[17.3.1.112,16.03,9]tetracosa-1(22),12,14,16(24),19(23),20-hexaen-2-one]

- HBE2 Activity at 3 μM (%) [4]: + (+ is <30+)
SMILES: Cc1cccc(C)c1-c1cc2nc(n1)NS(=O)(=O)c1cccc(c1)C(=O)N1[C@@H](c3ncc(OC(C)C)cn3)CCC[C@@H](CC(C)C)[C@H]1CO2 (single isomer, unassigned) [Compound 396, 14-(2,6-Dimethylphenyl)-8-isobutyl-4-(5-isopropoxypyrimidin-2-yl)-18,18-dioxo-11-oxa-18λ^6-thia-3,15,17,24-tetrazatetracyclo[17.3.1.112,16.03,9]tetracosa-1(22),12,14,16(24),19(23),20-hexaen-2-one]

- HBE2 Activity at 3 μM (%) [4]: +++ (+++ is >60%)
SMILES: Cc1cccc(C)c1-c1cc2nc(n1)NS(=O)(=O)c1cccc(c1)C(=O)N1[C@@H](c3ncc(OC(C)C)cn3)CCC[C@@H](CC(C)C)[C@H]1CO2 (single isomer, unassigned) [Compound 397, 14-(2,6-dimethylphenyl)-8-isobutyl-4-(5-isopropoxypyrimidin-2-yl)-18,18-dioxo-11-oxa-18λ^6-thia-3,15,17,24-tetrazatetracyclo[17.3.1.112,16.03,9]tetracosa-1(22),12,14,16(24),19(23),20-hexaen-2-one]
